#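 Exposure lasted 48 hours, with cells grown in 96-well plates and compounds tested at five concentrations. Here, GI50 denotes the concentration required for 50% inhibition of growth. The concentration for full growth arrest is given as TGI.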
# Legend:
# Test in all cases: inhibition of tumour cell growth, NCI panel, 48 h
# NCI-H522 lung = system: NCI-H522 lung
# MDA-MB-435 = system: MDA-MB-435
# UACC-62 melanoma = system: UACC-62 melanoma
# RXF 393 renal = system: RXF 393 renal
# LOX IMVI melanoma = system: LOX IMVI melanoma
# ACHN renal = system: ACHN renal
# MOLT-4 leukemia = system: MOLT-4 leukemia
# A498 renal = system: A498 renal
# HL-60(TB) leukemia = system: HL-60(TB) leukemia
Structure (SMILES),TGI (NCI-H522 lung) [µM],TGI (MDA-MB-435) [µM],TGI (UACC-62 melanoma) [µM],TGI (RXF 393 renal) [µM],TGI (LOX IMVI melanoma) [µM],TGI (ACHN renal) [µM],TGI (MOLT-4 leukemia) [µM],TGI (A498 renal) [µM],TGI (HL-60(TB) leukemia) [µM],GI50 (NCI-H522 lung) [µM],GI50 (MDA-MB-435) [µM],GI50 (UACC-62 melanoma) [µM],GI50 (RXF 393 renal) [µM],GI50 (ACHN renal) [µM],GI50 (MOLT-4 leukemia) [µM],GI50 (A498 renal) [µM]
COC(=O)c1cc(=O)[nH]c(=O)[nH]1,> 100,> 100,> 100,> 100,> 100,> 100,> 100,> 100,> 100,,,,,,,
CCOC(=O)CCC(NC(=O)OCc1ccccc1)C(=O)NC(CCC(=O)OCC)C(=O)NC(CCC(=O)OCC)C(=O)NC(CCC(=O)OCC)C(=O)NC(CCC(=O)OCC)C(=O)NC(CCC(=O)OCC)C(=O)NC(CCC(=O)OCC)C(=O)OCC (stereo not given),> 100,> 100,> 100,,> 100,> 100,> 100,> 100,> 100,,,,,,,
COP(=O)(OC)C(Cc1cn(C(C)=O)c2ccccc12)C(=O)O (stereo not given),> 100,,,,> 100,> 100,> 100,> 100,> 100,,,,,,,
CN(C)c1ccc(/C(F)=C(F)/C(F)=C(F)/C(F)=C(\F)c2ccc(Br)cc2)cc1,27.1,10.7,> 100,38.7,> 100,> 100,> 79.6,> 95.5,> 75,,,,,,,
COc1ccc2c3c1OC1C(=O)C=CC4(CC2)N(C)CCC314 (stereo not given),33,61.2,,> 100,> 100,73.9,59,58.7,,,,,,,,
Cc1ccc2c(=O)cc(-c3ccc(Cl)s3)[nH]c2n1,,> 100,> 100,> 25.7,> 100,> 100,> 100,> 100,0.989,,,,,,,
CCCCOC(=O)C(NC(C(=O)OCCCC)c1cc(C(C)(C)C)c(O)c(C(C)(C)C)c1)c1cc(C(C)(C)C)c(O)c(C(C)(C)C)c1 (stereo not given),> 100,> 100,> 100,,> 100,> 100,> 100,> 100,> 100,,,,,,,
ClCCCc1ccccc1C1=NCCc2ccccc21,> 100,> 100,> 100,> 100,,> 100,> 100,> 100,> 100,,,,,,,
CCNCCCn1c2c(c3ccc(Cl)cc3c1=O)C(=O)c1cc(OC)cnc1-2,24.5,2.55,21.4,2.43,,1.35,1.62,4.38,,0.263,1.15,0.532,1.03,0.154,0.0384,0.358
O=C1CCCCC/C1=C\c1ccc([N+](=O)[O-])cc1,,> 100,> 100,> 100,,55,> 100,> 100,94.4,,,,,,,
NC(=O)NNc1nc(-c2ccccc2)cs1,> 100,> 100,> 100,> 100,> 100,> 100,> 100,> 100,,,,,,,,
COC(=O)C1(Cc2ccc3c(c2)CCC3)Cc2ccccc2C1O (stereo not given),30.1,36.7,28.1,,34,38.3,35.5,33.7,> 100,,,,,,,
Nc1ccc(S(=O)(=O)c2ccc(NCN3C(=O)NC(=O)C(=O)C3=O)cc2)cc1,> 100,> 100,> 100,> 100,> 100,> 100,> 100,> 100,,,,,,,,
C[N+](C)(C)c1ccc(C(N)C(=O)O)cc1 (stereo not given),> 100,> 100,> 100,> 100,> 100,> 100,,> 100,> 100,,,,,,,
Cc1ccc(S(=O)(=O)n2c3ccc(Br)cc3c3nc4ccccc4nc32)cc1,> 100,> 100,> 100,> 100,> 100,> 100,> 100,> 100,,,,,,,,
COC(OC)[C@@H]1OC[C@H](n2cnc3c(N)ncnc32)[C@H]1O,,> 100,> 100,> 100,> 100,> 100,> 100,> 100,,,,,,,,
COC(=O)C1CCC(=S)N1C(=O)c1ccccc1 (stereo not given),> 100,> 100,> 100,> 100,,> 100,90.3,> 100,,,,,,,,
O=S(Nc1ccccc1)c1ccc(N2CCOCC2)cc1 (stereo not given),> 100,> 100,99.3,,> 100,> 100,> 100,,> 100,,,,,,,
CC1CCC/C1=C(/I)C(=O)c1ccccc1 (stereo not given),> 100,82,> 100,> 100,92.7,> 100,45.2,,70.4,,,,,,,
COC(C(=O)NN)c1ccccc1 (stereo not given),> 100,> 100,> 100,> 100,,> 100,> 100,,,,,,,,,
CCN(CC)N1C(=O)[N+](CC)(CC)N=C1[O-],> 100,> 100,> 100,,> 100,> 100,> 100,> 100,> 100,,,,,,,
CC(C)=NN/C(=N\S(=O)(=O)c1ccc(Oc2cccc(Cl)c2C#N)cc1)Nc1ccc(Cl)cc1,> 100,> 100,> 100,,> 100,,> 100,,> 100,,,,,,,
CCNC(=S)N=Nc1c(O)[nH]c2ccc([N+](=O)[O-])cc12,,> 100,> 100,80.4,> 100,> 100,> 100,89.3,> 100,,,,,,,
CC1(C)N/C(=C\C=O)C(C)(C)N1O,,> 100,> 100,> 100,> 100,> 100,> 100,,> 100,,,,,,,
CO/N=C1\CC(NC(=O)CNC(=O)OC(C)(C)C)c2ccsc21 (stereo not given),,> 100,> 100,> 100,> 100,,> 100,> 100,> 100,,,,,,,

# Reference: PubChem BioAssay (NCI)
